Assay results: paper doi:10.1101/2021.10.04.463106, “A high throughput screening assay for inhibitors of SARS-CoV-2 pseudotyped particle entry” (bioRxiv, 2021)
Like-named read-outs stand apart in the source and are kept apart here.

Key:
Assay in all cases: microbe, parasite or virus in culture
Type in all cases: cell-based
[1] = system: SARS-CoV-2-S PP (Wuhan-Hu-1 spike)
[2] = system: SARS-CoV-2-S PP (B.1.1.7 spike variant)
[3] = system: SARS-CoV-2-S PP (B.1.351 spike variant)
[4] = Severe acute respiratory syndrome coronavirus 2, read-out: EC50, Wuhan-Hu-1 PP
[5] = Severe acute respiratory syndrome coronavirus 2, read-out: EC50, B.1.1.7 PP
[6] = Severe acute respiratory syndrome coronavirus 2, read-out: EC50, B.1.351 PP

SMILES	EC50 [1, 4] [µM]	EC50 [2, 5] [µM]	EC50 [3, 6] [µM]	EC50 ([1]; Severe acute respiratory syndrome coronavirus 2, read-out: EC50 in Wuhan-Hu-1 SARS-CoV-2-S PP entry assay) [µM]	shift in potency between the Wuhan-Hu-1 spike sequence and the B.1.1.7 spike variant [2] [fold]	EC50 ([2]; Severe acute respiratory syndrome coronavirus 2, read-out: EC50 in B.1.1.7 SARS-CoV-2-S PP entry assay) [µM]	EC50 ([3]; Severe acute respiratory syndrome coronavirus 2, read-out: EC50 in B.1.351 SARS-CoV-2-S PP entry assay) [µM]
CCOC(=O)[C@H]1O[C@@H]1C(=O)N[C@@H](CC(C)C)C(=O)NCCC(C)C [Aloxistatin, aloxistatin]	0.8	0.46	1.21				
Cc1cccc(/C=N/Nc2cc(N3CCOCC3)nc(OCCc3ccccn3)n2)c1 [Apilimod, apilimod]				0.0092	7	0.0013	0.0047
COc1cc(N2CCC(N3CCN(C)CC3)CC2)ccc1Nc1ncc(Cl)c(Nc2ccccc2P(C)(C)=O)n1 [Brigatinib, brigatinib]	0.038	0.054	0.023				
CCCC[C@@H](C=O)NC(=O)[C@H](CC(C)C)NC(=O)OCc1ccccc1 [Calpeptin, calpeptin]	0.87	0.31	1.07				
